Tests used:
[1] = system: Saccharomyces; experiment: growth of winemaking yeasts on selective medium with cycloheximide; format: cell-based; details: in the concentration used by the inventors
Description: (§1) The procedure requires no sterile laboratory conditions and only little attention is to be paid to ensure that the right sample is placed on the surface of the culture medium. The culture medium contains components easily available. In addition to components used for growth, the medium contains antibiotics inhibiting the growth of yeasts, e.g.—other culture media similar to selective Brettanomyces—cycloheximide as well. This antibiotic is used for the identification of different species in yeast diagnostics.
(§2) In the following examples, unless indicated otherwise, the following concentrations and compositions were applied. Composition of medium that was suitable for growing yeast cells was the following: 1% glucose, 0.67% “yeast nitrogen base”, 2% agar, which was made selectively by using 5 μg/ml cycloheximide as an antibiotics for blocking the growth of Saccharomyces strains. Azure-II-eosinate was used in a 30 μg/ml concentration.

[2] = system: species causing the degradation of wine; experiment: growth of wine-degrading yeasts on selective medium with cycloheximide; format: cell-based; details: in the concentration used by the inventors
Description: as §1, §2

SMILES: C[C@@H]1C[C@@H]([C@H](O)CC2CC(=O)NC(=O)C2)C(=O)[C@@H](C)C1 [cycloheximide]
- growth inhibition of winemaking yeasts [1]: prevents the growth of most yeasts playing a role in wine-making
- tolerance by wine-degrading yeast species [2]: still tolerated
